Measurements as given in article PMC4805781 (International Journal for Parasitology: Drugs and Drug …, 2016).

Columns and labels:
[1] = tested on: P. falciparum HB3 infected cultures; assay: High content image-based assay of merozoite egress and invasion; assay type: cell-based, Plasmodium falciparum; settings: HB3, treated at 42 hpi, 10 μM, 24 h
Microsomal stability = assay type: in vitro ADME; settings: mouse, liver microsomes
[2] = tested on: Synchronized P. falciparum Dd2 cultures; assay: Flow cytometric profiling of inhibition, YOYO-1 staining; assay type: cell-based, Plasmodium falciparum; settings: Dd2, treated at 6 hpi ring stage, 5×EC50, sampled at 12 h intervals
[3] = Double-sink parallel artificial membrane permeability assay; assay type: in vitro ADME

SMILES: CC(C)C[C@H](NC(=O)[C@H]1O[C@@H]1C(=O)O)C(=O)NCCCCN=C(N)N [E-64]
- Effect on merozoite egress and invasion [1]: blocked egress

SMILES: C[C@]12CC[C@H]3[C@@H](CCC4=CC(=O)CC[C@@]43C)[C@@H]1CC[C@@H]2O [Testosterone]
- remaining at 1 h (Microsomal stability): 26.1%

SMILES: C[C@@H]1CC[C@H]2[C@@H](C)C(=O)O[C@@H]3O[C@@]4(C)CC[C@@H]1[C@]32OO4 [artemisinin]
- Effect on merozoite egress and invasion [1]: did not block merozoite egress or invasion
- Effect on parasite maturation by flow cytometry (DNA content) [2]: maturation is blocked

SMILES: COCCc1ccc(OCC(O)CNC(C)C)cc1 (stereo not shown) [metoprolol]
- Permeability pH 5.0 (−logPe) ([3]; pH 5.0): > 5.4 −logPe
- Permeability pH 6.2 (−logPe) ([3]; pH 6.2): 4.4 −logPe
- Permeability pH 7.4 (−logPe) ([3]; pH 7.4): 3.6 −logPe
